Laboratory results: the supplement of paper PMC10307832

How the values were obtained:
Experiment in all cases: relative viability (nuclei count vs DMSO), 5 days (fraction); higher = more cells survive
RERF-LC-KJ = tested on: RERF-LC-KJ
Outline: (§1)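 Lung cancer cell lines were pin-tool dosed in 1536-well plates on the day after seeding, with either a lone drug or a fixed anchor-drug dose plus five library-drug doses (not always all listed) in √10 steps. Nuclei were counted on 4× images after 5 days. Relative viability is the ratio of treated-well to vehicle-well nuclei counts, with each value a median of duplicate plates.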

CAL-12T = tested on: CAL-12T
Outline: as §1

NCI-H1437 = tested on: NCI-H1437
Outline: as §1

PC-3 [JPC-3] = tested on: PC-3 [JPC-3]
Outline: as §1

UMC-11 = tested on: UMC-11
Outline: as §1

NCI-H596 = tested on: NCI-H596
Outline: as §1

SK-LU-1 = tested on: SK-LU-1
Outline: as §1

NCI-H1563 = tested on: NCI-H1563
Outline: as §1

NCI-H1734 = tested on: NCI-H1734
Outline: as §1

NCI-H1755 = tested on: NCI-H1755
Outline: as §1

EMC-BAC-2 = tested on: EMC-BAC-2
Outline: as §1

`CCNC(=O)c1noc(-c2cc(C(C)C)c(O)cc2O)c1-c1ccc(CN2CCOCC2)cc1` [Luminespib] + Nc1nc2[nH]cc(CCc3ccc(C(=O)N[C@@H](CCC(=O)O)C(=O)O)cc3)c2c(=O)[nH]1 [Pemetrexed] (partner 0.2 µM) showed a relative viability (RERF-LC-KJ; first compound 0.002 µM) of 0.474, a relative viability (RERF-LC-KJ; first compound 0.006325 µM) of 0.449 and a relative viability (RERF-LC-KJ; first compound 0.02 µM) of 0.462. It also gave a relative viability (RERF-LC-KJ; first compound 0.06325 µM) of 0.287, a relative viability (RERF-LC-KJ; first compound 0.2 µM) of 0.219 and a relative viability (CAL-12T; first compound 0.002 µM) of 1.23. For the same molecule, the relative viability (CAL-12T; first compound 0.006325 µM) was 0.988, the relative viability (CAL-12T; first compound 0.02 µM) was 0.906 and the relative viability (CAL-12T; first compound 0.06325 µM) was 0.146. For the same molecule, the relative viability (CAL-12T; first compound 0.2 µM) was 0.124, the relative viability (NCI-H1437; first compound 0.002 µM) was 0.305 and the relative viability (NCI-H1437; first compound 0.006325 µM) was 0.305. It also gave a relative viability (NCI-H1437; first compound 0.02 µM) of 0.347, a relative viability (NCI-H1437; first compound 0.06325 µM) of 0.266 and a relative viability (NCI-H1437; first compound 0.2 µM) of 0.156. For the same molecule, the relative viability (PC-3 [JPC-3]; first compound 0.002 µM) was 0.706, the relative viability (PC-3 [JPC-3]; first compound 0.006325 µM) was 0.342 and the relative viability (PC-3 [JPC-3]; first compound 0.02 µM) was 0.681. It also gave a relative viability (PC-3 [JPC-3]; first compound 0.06325 µM) of 0.357, a relative viability (PC-3 [JPC-3]; first compound 0.2 µM) of 0.272 and a relative viability (UMC-11; first compound 0.002 µM) of 0.737. It also gave a relative viability (UMC-11; first compound 0.006325 µM) of 0.843, a relative viability (UMC-11; first compound 0.02 µM) of 0.762 and a relative viability (UMC-11; first compound 0.06325 µM) of 0.322. It also gave a relative viability (UMC-11; first compound 0.2 µM) of 0.161, a relative viability (NCI-H596; first compound 0.002 µM) of 0.526 and a relative viability (NCI-H596; first compound 0.006325 µM) of 0.493. For the same molecule, the relative viability (NCI-H596; first compound 0.02 µM) was 0.548, the relative viability (NCI-H596; first compound 0.06325 µM) was 0.518 and the relative viability (NCI-H596; first compound 0.2 µM) was 0.528. For the same molecule, the relative viability (SK-LU-1; first compound 0.002 µM) was 1.01, the relative viability (SK-LU-1; first compound 0.006325 µM) was 0.779 and the relative viability (SK-LU-1; first compound 0.02 µM) was 0.825. For the same molecule, the relative viability (SK-LU-1; first compound 0.06325 µM) was 0.244, the relative viability (SK-LU-1; first compound 0.2 µM) was 0.206 and the relative viability (NCI-H1563; first compound 0.002 µM) was 0.808. For the same molecule, the relative viability (NCI-H1563; first compound 0.006325 µM) was 0.599, the relative viability (NCI-H1563; first compound 0.02 µM) was 0.668 and the relative viability (NCI-H1563; first compound 0.06325 µM) was 0.402. For the same molecule, the relative viability (NCI-H1563; first compound 0.2 µM) was 0.41, the relative viability (NCI-H1734; first compound 0.002 µM) was 0.475 and the relative viability (NCI-H1734; first compound 0.006325 µM) was 0.406. The relative viability (NCI-H1734; first compound 0.02 µM) was 0.428, the relative viability (NCI-H1734; first compound 0.06325 µM) was 0.159 and the relative viability (NCI-H1734; first compound 0.2 µM) was 0.143. It also gave a relative viability (NCI-H1755; first compound 0.002 µM) of 0.415, a relative viability (NCI-H1755; first compound 0.006325 µM) of 0.424 and a relative viability (NCI-H1755; first compound 0.02 µM) of 0.415. The relative viability (NCI-H1755; first compound 0.06325 µM) was 0.264, the relative viability (NCI-H1755; first compound 0.2 µM) was 0.2 and the relative viability (EMC-BAC-2; first compound 0.002 µM) was 0.467. It also gave a relative viability (EMC-BAC-2; first compound 0.006325 µM) of 0.287.
